Here are results for one molecule from patent US10351559B2, “Maleate salts of a B-RAF kinase inhibitor, crystalline forms, methods of preparation, and uses therefore” (BeiGene, Ltd., priority 2015, dated 2019).

Test [1] has as its target T1, BTK (Homo sapiens, UniProt Q06187).
T1 construct: purchased Carna Biosciences
Nature of the test: HTRF KinEASE-TK kinase assay. The test is classed as biochemical. On the procedure:
(§1) Crystalline Form A* of Compound 1 Sesqui-Maleate was tested against recombinant EGFR/EPHA2/BTK (from Carna Biosciences), ITK/TEC/SRC/PDGFR-beta/TXK/FLT3/VEGFR2/RET (from Life Technologies), and HER2 (aa676-1255, recombinant protein purified from insect expression system) in HTRF KinEASE-TK assay from Cisbio Bioassays according to the manufacturer's instructions. The assay was carried out in a reaction mixture containing kinases, ATP at KM concentration, biotinylated peptide substrate (61TK0BLC, Cisbio Bioassays) and Crystalline Form A* of Compound 1 Sesqui-Maleate. The kinase was incubated with Crystalline Form A* of Compound 1 Sesqui-Maleate at RT for 1 hr or 2 hr (for EGFR) and the reaction was initiated by the addition of ATP and substrate. After reaction, stop/detection solution was added according to the manufacture's instruction. The stop/detection solution contained Eu+ cryptate conjugated antiphosphotyrosine antibody (61T66kLB, CisBio Bioassays) and Streptavidin-XL665 (610SAXLB, CisBio Bioassays) in buffer containing 25 mM Tris pH7.4, 400 mM KF, 50 mM EDTA, 0.01% BSA, 0.01% Triton X-100. The TR-FRET signals (ratio of fluorescence emission at 665 nm over emission at 620 nm with excitation at 337 nm wavelength) were recorded on a PHERAstar FS plate reader (BMG Labtech) after 1 hr incubation. Phosphorylation of biotinylated peptide substrate led to the binding of both Eu+ cryptate conjugated antiphosphotyrosine antibody and streptaviding-XL665 to the biotinylated peptide. The close proximity of the donor (Eu+ cryptate) and acceptor (XL665) fluorophore led to a high degree of fluorescence resonance energy transfer from the donor fluorophore (at 620 nm) to the acceptor fluorophore (at 665 nm). The IC50 for Crystalline Form A* of Compound 1 Sesqui-Maleate was derived from fitting the dose-response % inhibition data to the four-parameter logistic model by Graphpad Prism software.
Background: In TR-FRET formats the signal depends on donor and acceptor labels being close together.

The target in test [2] is T2, EPHA2 (Homo sapiens, UniProt P29317).
T2 construct: purchased Carna Biosciences
The test can be described thus: HTRF KinEASE-TK kinase assay. Format: biochemical. On the procedure: as §1

Test [3] has as its target T3, FLT3 (Homo sapiens, UniProt P36888).
T3 construct: purchased Life Technologies
Nature of the test: HTRF KinEASE-TK kinase assay. The test is classed as biochemical. The method, then:
as §1

The target of test [4] is T4, ITK (Homo sapiens, UniProt Q08881).
T4 construct: purchased Life Technologies
The test can be described thus: HTRF KinEASE-TK kinase assay. Format: biochemical. On the procedure: as §1

The target of test [5] is T5, PDGFR-beta (Homo sapiens, UniProt P09619).
T5 construct: purchased Life Technologies
Nature of the test: HTRF KinEASE-TK kinase assay. Format: biochemical. The method, then: as §1

The target of test [6] is T6, RET (Homo sapiens, UniProt P07949).
T6 construct: purchased Life Technologies
Nature of the test: HTRF KinEASE-TK kinase assay. Format: biochemical. On the procedure: as §1

Test [7] addresses T7, SRC (Homo sapiens, UniProt P12931).
T7 construct: purchased Life Technologies
The test can be described thus: HTRF KinEASE-TK kinase assay. Format: biochemical. The method, then:
as §1

Test [8] deals with T8, TEC (Homo sapiens, UniProt P42680).
T8 construct: purchased Life Technologies
Nature of the test: HTRF KinEASE-TK kinase assay. Format: biochemical. On the procedure: as §1

Test [9] addresses T9, TXK (Homo sapiens, UniProt P42681).
T9 construct: purchased Life Technologies
Nature of the test: HTRF KinEASE-TK kinase assay. The test is classed as biochemical. On the procedure:
as §1

Test [10] concerns A431 epidermoid carcinoma (EGFR overexpression) xenografts. The test can be described thus: xenograft efficacy study. The test is classed as in vivo, BALB/C nude mice. The following applies: A431 xenografts in nude mice, oral. On the procedure:
(§2) Human cancer cells were inoculated subcutaneously in the right axilla region of BALB/C nude mice to generate tumor xenografts. On the day of implantation, the cell culture medium was replaced with fresh medium. Three hours later, the media was removed and the cells were collected and re-suspended in cold (4° C.) PBS prior to inoculation. The right axilla region of each mouse was cleaned with 70% ethanol prior to cell inoculation. Each animal was injected subcutaneously with desired cells in 200 μl of cell suspension in the right front flank via a 26-gauge needle. After implantation tumor volumes were measured twice weekly in two dimensions using a calliper. Tumor volume was calculated using the formula: V=0.5×(a×b^2) where a and b are the long and short diameters of the tumor, respectively.
(§3) For in vivo efficacy studies, when the average tumor size reaches 100˜200 mm^3, animals were assigned into desired number of groups with 6-10 mice per group using a stratified randomization procedure. The groups consisted of a control group (no drug treatment), and different dose levels of Crystalline Form A* of Compound 1 Sesqui-Maleate treatment groups (ranged from 1-20 mg/kg). All doses were based on free-base weight. Drugs were administered by oral gavage once (qd) or twice (bid) daily; dosing frequency depended on the individual case for tumor growth. Treatments were administered by oral gavage (p.o.) in a volume of 10 ml/kg body weight. Body weight was assessed immediately before dosing and the volume dosed was adjusted accordingly. Individual body weights and tumor volumes were determined twice weekly, with mice being monitored daily for clinical signs of toxicity for the duration of the study. Mice were euthanized using carbon dioxide once their tumor volume reached 2000 mm^3, the tumor was ulcerated, or body weight loss exceeded 20%. All group data was analyzed using the t test. If the p value was <0.05, it was considered to be statistically significant.
(§4) Tumor growth inhibition (TGI) was calculated using the following formula: […]

In test [11] the test system is LOX melanoma (B-RAF V600E mutation) xenografts. The test can be described thus: xenograft efficacy study. The test is classed as in vivo, BALB/C nude mice. The following applies: LOX xenografts in nude mice, oral. On the procedure: as §2, §3, §4
The test system of test [12] is p-ERK in Calu-6 K-RAS mutant non-small cell lung adenocarcinoma xenograft models. The test can be described thus: PD study, p-ERK in tumor tissue, combination. The test is classed as in vivo, mice. The following applies: Calu-6 xenograft, with MEK inhibitor AZD6244. On the procedure:
as §2
For PD study, when the average tumor size reaches 140-900 mm^3, animals were assigned into desired number of groups with 4 mice per group using a stratified randomization procedure. The groups consisted of a control group (no drug treatment), and different dose levels of Crystalline Form A* of Compound 1 Sesqui-Maleate treatment groups (ranged from 1-20 mg/kg). All doses were based on free-base weight. Drugs were administered by oral gavage once (qd) or twice (bid) daily. […] Body weight was assessed immediately before dosing and the volume dosed was adjusted accordingly. […]

The term IC50 denotes the point on the concentration scale where inhibition reaches its midpoint. The low end stands for greater potency, the high end for weaker potency.

SMILES strings stand for the structures. Structures can show the parent of a compound that is named as a salt.

T5 sequence (P09619 33-1106): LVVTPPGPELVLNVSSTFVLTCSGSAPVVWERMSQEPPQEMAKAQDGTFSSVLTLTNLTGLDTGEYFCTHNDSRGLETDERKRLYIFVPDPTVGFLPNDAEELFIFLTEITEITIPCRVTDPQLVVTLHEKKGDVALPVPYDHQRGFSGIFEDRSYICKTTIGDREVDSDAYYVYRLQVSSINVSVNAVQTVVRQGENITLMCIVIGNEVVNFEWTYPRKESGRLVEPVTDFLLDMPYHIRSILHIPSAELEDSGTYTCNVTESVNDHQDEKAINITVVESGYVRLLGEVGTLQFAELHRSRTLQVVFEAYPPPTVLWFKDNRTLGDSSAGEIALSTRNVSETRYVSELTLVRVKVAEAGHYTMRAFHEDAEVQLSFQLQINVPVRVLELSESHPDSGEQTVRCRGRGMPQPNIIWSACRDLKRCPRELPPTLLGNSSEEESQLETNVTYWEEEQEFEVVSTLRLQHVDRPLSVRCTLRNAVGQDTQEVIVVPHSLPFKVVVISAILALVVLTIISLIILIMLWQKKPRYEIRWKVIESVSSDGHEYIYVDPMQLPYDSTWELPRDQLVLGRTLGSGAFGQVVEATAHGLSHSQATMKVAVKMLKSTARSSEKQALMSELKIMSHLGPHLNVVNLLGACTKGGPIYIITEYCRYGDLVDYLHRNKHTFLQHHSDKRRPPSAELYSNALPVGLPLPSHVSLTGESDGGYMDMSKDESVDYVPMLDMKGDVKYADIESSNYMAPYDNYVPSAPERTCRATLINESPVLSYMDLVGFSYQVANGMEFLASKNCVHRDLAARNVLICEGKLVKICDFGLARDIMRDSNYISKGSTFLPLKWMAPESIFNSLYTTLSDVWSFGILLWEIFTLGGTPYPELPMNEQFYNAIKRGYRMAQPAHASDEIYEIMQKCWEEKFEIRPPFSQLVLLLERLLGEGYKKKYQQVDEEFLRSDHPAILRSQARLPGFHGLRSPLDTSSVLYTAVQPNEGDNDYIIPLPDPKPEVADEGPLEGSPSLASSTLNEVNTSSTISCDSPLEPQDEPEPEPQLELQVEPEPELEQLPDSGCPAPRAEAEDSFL
T3 sequence (P36888 27-993): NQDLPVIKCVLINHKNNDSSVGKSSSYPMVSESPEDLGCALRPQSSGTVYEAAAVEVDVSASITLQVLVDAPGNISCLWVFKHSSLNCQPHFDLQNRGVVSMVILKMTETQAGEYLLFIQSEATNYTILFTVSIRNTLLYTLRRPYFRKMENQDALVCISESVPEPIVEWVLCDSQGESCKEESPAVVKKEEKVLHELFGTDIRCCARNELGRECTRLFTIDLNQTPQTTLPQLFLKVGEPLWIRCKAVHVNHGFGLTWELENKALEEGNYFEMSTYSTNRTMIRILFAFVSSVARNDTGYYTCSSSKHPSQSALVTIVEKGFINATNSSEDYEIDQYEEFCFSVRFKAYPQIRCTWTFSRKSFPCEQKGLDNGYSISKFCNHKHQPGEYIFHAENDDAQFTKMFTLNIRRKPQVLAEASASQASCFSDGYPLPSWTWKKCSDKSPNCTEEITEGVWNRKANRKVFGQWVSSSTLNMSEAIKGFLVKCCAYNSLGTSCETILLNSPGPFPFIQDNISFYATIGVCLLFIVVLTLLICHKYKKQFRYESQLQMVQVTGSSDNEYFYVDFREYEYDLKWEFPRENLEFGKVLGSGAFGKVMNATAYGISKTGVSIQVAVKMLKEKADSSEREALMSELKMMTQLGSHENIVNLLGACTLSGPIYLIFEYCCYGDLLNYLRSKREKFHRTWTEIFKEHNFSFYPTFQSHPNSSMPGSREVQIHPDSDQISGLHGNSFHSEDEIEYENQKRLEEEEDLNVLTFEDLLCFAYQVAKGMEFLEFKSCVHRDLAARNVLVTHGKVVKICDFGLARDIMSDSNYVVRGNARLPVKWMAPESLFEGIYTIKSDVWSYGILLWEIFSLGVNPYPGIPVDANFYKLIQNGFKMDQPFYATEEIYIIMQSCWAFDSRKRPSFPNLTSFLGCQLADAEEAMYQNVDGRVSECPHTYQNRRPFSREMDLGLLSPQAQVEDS
T1 sequence (Q06187 whole entry): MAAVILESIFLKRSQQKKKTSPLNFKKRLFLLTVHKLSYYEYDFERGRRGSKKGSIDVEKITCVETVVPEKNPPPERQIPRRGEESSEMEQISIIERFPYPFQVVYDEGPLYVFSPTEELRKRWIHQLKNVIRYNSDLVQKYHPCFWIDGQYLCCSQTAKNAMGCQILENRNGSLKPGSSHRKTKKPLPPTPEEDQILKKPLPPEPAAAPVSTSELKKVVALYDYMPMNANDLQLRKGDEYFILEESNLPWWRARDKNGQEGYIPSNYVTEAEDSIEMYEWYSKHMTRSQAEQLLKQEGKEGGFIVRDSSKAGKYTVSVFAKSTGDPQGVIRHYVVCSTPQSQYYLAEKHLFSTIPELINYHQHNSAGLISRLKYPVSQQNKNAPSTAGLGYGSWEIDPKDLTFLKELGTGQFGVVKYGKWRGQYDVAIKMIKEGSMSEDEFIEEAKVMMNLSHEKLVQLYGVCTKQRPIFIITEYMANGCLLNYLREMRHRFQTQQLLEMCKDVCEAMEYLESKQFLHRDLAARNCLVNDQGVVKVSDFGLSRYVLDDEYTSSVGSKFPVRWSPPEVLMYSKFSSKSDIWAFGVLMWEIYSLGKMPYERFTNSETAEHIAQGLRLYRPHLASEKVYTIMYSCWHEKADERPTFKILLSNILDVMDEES
T9 sequence (P42681 whole entry): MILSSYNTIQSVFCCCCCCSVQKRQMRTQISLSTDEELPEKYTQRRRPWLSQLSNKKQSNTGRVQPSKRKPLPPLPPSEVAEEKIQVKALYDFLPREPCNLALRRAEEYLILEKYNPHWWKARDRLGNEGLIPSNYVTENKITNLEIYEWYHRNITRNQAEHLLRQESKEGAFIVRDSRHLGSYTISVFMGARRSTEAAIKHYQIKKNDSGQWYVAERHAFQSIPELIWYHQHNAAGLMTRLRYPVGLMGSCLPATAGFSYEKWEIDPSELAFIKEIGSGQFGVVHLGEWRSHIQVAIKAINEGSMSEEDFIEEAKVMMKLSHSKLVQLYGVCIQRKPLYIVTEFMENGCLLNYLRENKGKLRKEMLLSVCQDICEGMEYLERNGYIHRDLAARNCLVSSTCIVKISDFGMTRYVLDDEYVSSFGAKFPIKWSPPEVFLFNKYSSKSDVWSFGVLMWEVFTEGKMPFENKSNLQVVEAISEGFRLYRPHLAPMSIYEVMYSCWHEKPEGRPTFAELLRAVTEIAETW
T6 sequence (P07949 29-1114): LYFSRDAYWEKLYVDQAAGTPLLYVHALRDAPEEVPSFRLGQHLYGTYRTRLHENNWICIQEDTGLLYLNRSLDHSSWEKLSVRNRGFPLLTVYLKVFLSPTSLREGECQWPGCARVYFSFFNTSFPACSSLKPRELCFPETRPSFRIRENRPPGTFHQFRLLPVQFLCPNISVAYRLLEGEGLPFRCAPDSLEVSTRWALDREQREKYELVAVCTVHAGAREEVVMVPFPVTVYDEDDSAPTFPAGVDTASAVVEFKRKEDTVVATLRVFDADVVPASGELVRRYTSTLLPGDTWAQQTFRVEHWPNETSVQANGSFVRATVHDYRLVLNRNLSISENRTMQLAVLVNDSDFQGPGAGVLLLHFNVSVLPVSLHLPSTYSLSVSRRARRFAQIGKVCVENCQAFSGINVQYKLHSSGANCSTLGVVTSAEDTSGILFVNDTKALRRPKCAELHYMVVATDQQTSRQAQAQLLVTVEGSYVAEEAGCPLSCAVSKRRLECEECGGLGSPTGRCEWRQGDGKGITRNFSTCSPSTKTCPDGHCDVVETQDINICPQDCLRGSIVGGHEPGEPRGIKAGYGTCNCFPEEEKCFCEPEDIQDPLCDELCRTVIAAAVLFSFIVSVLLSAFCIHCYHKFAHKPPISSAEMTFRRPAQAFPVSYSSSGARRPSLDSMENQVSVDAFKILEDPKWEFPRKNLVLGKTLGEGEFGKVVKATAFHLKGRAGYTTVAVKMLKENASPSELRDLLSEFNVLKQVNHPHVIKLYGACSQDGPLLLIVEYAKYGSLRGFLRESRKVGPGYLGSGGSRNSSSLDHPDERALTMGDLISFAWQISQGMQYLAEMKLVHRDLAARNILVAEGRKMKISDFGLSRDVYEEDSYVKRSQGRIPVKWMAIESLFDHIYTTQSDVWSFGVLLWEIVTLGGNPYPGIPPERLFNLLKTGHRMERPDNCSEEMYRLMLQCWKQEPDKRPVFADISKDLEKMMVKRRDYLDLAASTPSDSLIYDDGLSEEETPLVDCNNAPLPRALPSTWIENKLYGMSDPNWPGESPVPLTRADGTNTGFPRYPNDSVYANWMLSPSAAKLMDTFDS
T8 sequence (P42680 whole entry): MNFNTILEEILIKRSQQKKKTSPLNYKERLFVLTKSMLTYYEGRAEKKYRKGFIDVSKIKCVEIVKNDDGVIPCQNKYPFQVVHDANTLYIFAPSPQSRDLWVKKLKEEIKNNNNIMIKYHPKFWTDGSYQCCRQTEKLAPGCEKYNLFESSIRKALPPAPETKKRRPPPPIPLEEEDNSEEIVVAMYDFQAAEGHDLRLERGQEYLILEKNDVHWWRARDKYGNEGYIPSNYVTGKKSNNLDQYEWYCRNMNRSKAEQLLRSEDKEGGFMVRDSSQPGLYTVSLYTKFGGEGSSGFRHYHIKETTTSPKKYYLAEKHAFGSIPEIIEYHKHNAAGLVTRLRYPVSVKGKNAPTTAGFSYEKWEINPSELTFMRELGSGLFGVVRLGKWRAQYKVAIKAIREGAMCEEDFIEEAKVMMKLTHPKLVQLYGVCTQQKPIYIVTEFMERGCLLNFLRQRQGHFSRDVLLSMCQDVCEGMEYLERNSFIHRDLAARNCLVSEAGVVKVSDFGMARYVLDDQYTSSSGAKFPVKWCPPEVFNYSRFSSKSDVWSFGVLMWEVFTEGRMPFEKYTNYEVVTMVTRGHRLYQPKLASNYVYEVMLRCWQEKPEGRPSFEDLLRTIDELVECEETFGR

For the molecule `O=C1CCc2c(Oc3ccc4c(c3)[C@@H]3[C@H](O4)[C@H]3c3nc4ccc(C(F)(F)F)cc4[nH]3)ccnc2N1` [5-(((1R,1aS,6bR)-1-(6-(trifluoromethyl)-1H-benzo[d]imidazol-2-yl)-1a,6b-dihydro-1H-cyclopropa[b]benzofuran-5-yl)oxy)-3,4-dihydro-1,8-naphthyridin-2(1H)-one sesqui-maleate salt], the “enzyme inhibition” value is “no inhibition” in test [1]; “potently inhibits” in [2]; “potently inhibits” in [3]; “no inhibition” in test [4]; “potently inhibits” in [5]; “potently inhibits” in [6]. Moreover, the “enzyme inhibition” value in test [7] is “weak inhibition”; in [8], “no inhibition”; in test [9], “weak inhibition”. In addition, the IC50 in [1] (ATP at KM) is above 10000 nM; in [2] (ATP at KM), 61 nM; in [3] (ATP at KM), 25 nM; in test [4] (ATP at KM), above 10000 nM; in [5] (ATP at KM) it was 17 nM; in test [6] (ATP at KM) it was 18 nM. For the same molecule, the IC50 was 917 nM in [7] (ATP at KM), above 10000 nM in test [8] (ATP at KM) and 4800 nM in [9] (ATP at KM). Besides, the antitumor activity entry in test [10] and in test [11] was “marked antitumor activity” throughout. Moreover, the “effect on inhibiting p-ERK in combination” value in [12] is recorded as “strong synergistic effect”.
